Laboratory results: US20260285850A1, “SUBSTITUTED OXAZOLIDINONES AND IMIDAZOLINONES AS HERBICIDES” (FMC CORPORATION, priority 2023, published 2026)

Legend:
Format in all cases: in vivo
[1] = tested on: ducksalad (Heteranthera limosa); test: Test B flooded paddy test, visual plant response rating 0-100; conditions: 250 g ai/ha, Flood, applied to paddy water, evaluated after 13 days
Procedure, shortened: (§1)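 Treatment occurs at the 2-leaf stage by adding compound to floodwater standing 3 cm above the soil, a level kept for the whole test. Plants stay in the greenhouse 13 days before visual comparison with controls.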

rice (Oryza sativa) = test: as above; conditions: 250 g ai/ha, Flood, applied to paddy water, evaluated after 13 days
Procedure, shortened: as §1

[2] = tested on: barnyardgrass (Echinochloa crusgalli); test: as above; conditions: 250 g ai/ha, Flood, applied to paddy water, evaluated after 13 days
Procedure, shortened: as §1

[3] = tested on: sedge, umbrella (small-flower umbrella sedge, Cyperus difformis); test: as above; conditions: 250 g ai/ha, Flood, applied to paddy water, evaluated after 13 days
Procedure, shortened: as §1

[4] = tested on: green foxtail (Setaria viridis); test: Test A preemergence soil spray, visual injury rating 0-100; conditions: 10 days, 0 = no effect, 100 = complete control
Procedure, shortened: (§2)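 Seeds sown in loam-sand blend got a preemergence directed soil spray, or emerged plants (2-10 cm, one- to two-leaf) got a postemergence spray, of compound in non-phytotoxic solvent with surfactant. After 10 days in greenhouse, injury rated visually versus untreated controls on a 0 (no effect) to 100 (complete control) scale.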

[5] = tested on: oat, wild (wild oat, Avena fatua); test: as above; conditions: 10 days, 0 = no effect, 100 = complete control
Procedure, shortened: as §2

[6] = tested on: barnyardgrass (Echinochloa crus-galli); test: as above; conditions: 10 days, 0 = no effect, 100 = complete control
Procedure, shortened: as §2

corn (Zea mays) [7] = test: as above; conditions: 10 days, 0 = no effect, 100 = complete control
Procedure, shortened: as §2

[8] = tested on: ryegrass, Italian (italian ryegrass, Lolium multiflorum); test: as above; conditions: 10 days, 0 = no effect, 100 = complete control
Procedure, shortened: as §2

kochia (Bassia scoparia) [9] = test: as above; conditions: 10 days, 0 = no effect, 100 = complete control
Procedure, shortened: as §2

[10] = tested on: wheat (Triticum aestivum); test: as above; conditions: 10 days, 0 = no effect, 100 = complete control
Procedure, shortened: as §2

[11] = tested on: blackgrass (Alopecurus myosuroides); test: as above; conditions: 10 days, 0 = no effect, 100 = complete control
Procedure, shortened: as §2

soybean (Glycine max) [12] = test: as above; conditions: 10 days, 0 = no effect, 100 = complete control
Procedure, shortened: as §2

[13] = tested on: ragweed (common ragweed, Ambrosia artemisiifolia); test: as above; conditions: 10 days, 0 = no effect, 100 = complete control
Procedure, shortened: as §2

[14] = tested on: palmer (palmer amaranth, palmer pigweed, Amaranthus palmeri); test: as above; conditions: 10 days, 0 = no effect, 100 = complete control
Procedure, shortened: as §2

[15] = tested on: green foxtail (Setaria viridis); test: Test A postemergence application, visual injury rating 0-100; conditions: 10 days
Procedure, shortened: as §2

[16] = tested on: oat, wild (wild oat, Avena fatua); test: as above; conditions: 10 days
Procedure, shortened: as §2

[17] = tested on: horseweed (Erigeron canadensis); test: as above; conditions: 10 days
Procedure, shortened: as §2

[18] = tested on: barnyardgrass (Echinochloa crus-galli); test: as above; conditions: 10 days
Procedure, shortened: as §2

corn (Zea mays) [19] = test: as above; conditions: 10 days
Procedure, shortened: as §2

[20] = tested on: galium (catchweed bedstraw, Galium aparine); test: as above; conditions: 10 days
Procedure, shortened: as §2

[21] = tested on: ryegrass, Italian (italian ryegrass, Lolium multiflorum); test: as above; conditions: 10 days
Procedure, shortened: as §2

kochia (Bassia scoparia) [22] = test: as above; conditions: 10 days
Procedure, shortened: as §2

[23] = tested on: wheat (Triticum aestivum); test: as above; conditions: 10 days
Procedure, shortened: as §2

[24] = tested on: blackgrass (Alopecurus myosuroides); test: as above; conditions: 10 days
Procedure, shortened: as §2

soybean (Glycine max) [25] = test: as above; conditions: 10 days
Procedure, shortened: as §2

[26] = tested on: ragweed (common ragweed, Ambrosia artemisiifolia); test: as above; conditions: 10 days
Procedure, shortened: as §2

[27] = tested on: palmer (palmer amaranth, palmer pigweed, Amaranthus palmeri); test: as above; conditions: 10 days
Procedure, shortened: as §2

[28] = 31 g ai/ha, postemergence, 0 = no effect, 100 = complete control
[29] = Postemergence, 125 g ai/ha, 0 is no effect, 100 is complete control

## CC(C)COC(=O)C1=CCC(NC(=O)C2(C)CN(c3cc(F)cc(F)c3)C(=O)O2)C1 (stereo not shown) [Compound 16]
[1]
  Plant response rating, Ducksalad (0 to 100 scale, 0 is no effect and 100 is complete control): 70
Rice (Oryza sativa)
  Plant response rating, Rice (0 to 100 scale, 0 is no effect and 100 is complete control): 65
[2]
  Plant response rating, Barnyardgrass (0 to 100 scale, 0 is no effect and 100 is complete control): 65
[3]
  Plant response rating, Sedge, Umbrella (0 to 100 scale, 0 is no effect and 100 is complete control): 65
[4]; 31 g ai/ha
  Foxtail, Green plant response rating (0-100): 0
[4]; 125 g ai/ha
  Foxtail, Green plant response rating (0 to 100 scale): 100
[5]; 31 g ai/ha
  Oat, Wild plant response rating (0-100): 0
[5]; 125 g ai/ha
  Oat, Wild plant response rating (0 to 100 scale): 50
[6]; 31 g ai/ha
  Barnyardgrass plant response rating (0-100): 0
[6]; 125 g ai/ha
  Barnyardgrass plant response rating (0 to 100 scale): 90
Corn (Zea mays) [7]; 31 g ai/ha
  Corn plant response rating (0-100): 20
Corn (Zea mays) [7]; 125 g ai/ha
  Corn plant response rating (0 to 100 scale): 70
[8]; 31 g ai/ha
  Ryegrass, Italian plant response rating (0-100): 40
[8]; 125 g ai/ha
  Ryegrass, Italian plant response rating (0 to 100 scale): 90
Kochia (Bassia scoparia) [9]; 31 g ai/ha
  Kochia plant response rating (0-100): 0
Kochia (Bassia scoparia) [9]; 125 g ai/ha
  Kochia plant response rating (0 to 100 scale): 40
[10]; 31 g ai/ha
  Wheat plant response rating (0-100): 50
[10]; 125 g ai/ha
  Wheat plant response rating (0 to 100 scale): 80
[11]; 31 g ai/ha
  Blackgrass plant response rating (0-100): 0
[11]; 125 g ai/ha
  Blackgrass plant response rating (0 to 100 scale): 40
Soybean (Glycine max) [12]; 31 g ai/ha
  Soybean plant response rating (0-100): 0
Soybean (Glycine max) [12]; 125 g ai/ha
  Soybean plant response rating (0 to 100 scale): 0
[13]; 31 g ai/ha
  Ragweed plant response rating (0-100): 0
[13]; 125 g ai/ha
  Ragweed plant response rating (0 to 100 scale): 20
[14]; 31 g ai/ha
  Amaranth, Palmer plant response rating (0-100): 0
[14]; 125 g ai/ha
  Amaranth, Palmer plant response rating (0 to 100 scale): 80
[15]; [28]
  Foxtail, Green plant response rating (0-100): 90
[15]; [29]
  Foxtail, Green plant response rating (0 to 100 scale): 90
[16]; [28]
  Oat, Wild plant response rating (0-100): 60
[16]; [29]
  Oat, Wild plant response rating (0 to 100 scale): 90
[17]; [28]
  Horseweed plant response rating (0-100): 0
[17]; [29]
  Horseweed plant response rating (0 to 100 scale): 20
[18]; [28]
  Barnyardgrass plant response rating (0-100): 100
[18]; [29]
  Barnyardgrass plant response rating (0 to 100 scale): 100
Corn (Zea mays) [19]; [28]
  Corn plant response rating (0-100): 90
Corn (Zea mays) [19]; [29]
  Corn plant response rating (0 to 100 scale): 100
[20]; [28]
  Galium plant response rating (0-100): 90
[20]; [29]
  Galium plant response rating (0 to 100 scale): 90
[21]; [28]
  Ryegrass, Italian plant response rating (0-100): 70
[21]; [29]
  Ryegrass, Italian plant response rating (0 to 100 scale): 90
Kochia (Bassia scoparia) [22]; [28]
  Kochia plant response rating (0-100): 70
Kochia (Bassia scoparia) [22]; [29]
  Kochia plant response rating (0 to 100 scale): 70
[23]; [28]
  Wheat plant response rating (0-100): 80
[23]; [29]
  Wheat plant response rating (0 to 100 scale): 90
[24]; [28]
  Blackgrass plant response rating (0-100): 90
[24]; [29]
  Blackgrass plant response rating (0 to 100 scale): 100
Soybean (Glycine max) [25]; [28]
  Soybean plant response rating (0-100): 60
Soybean (Glycine max) [25]; [29]
  Soybean plant response rating (0 to 100 scale): 60
[26]; [28]
  Ragweed plant response rating (0-100): 40
[26]; [29]
  Ragweed plant response rating (0 to 100 scale): 50
[27]; [28]
  Amaranth, Palmer plant response rating (0-100): 20
[27]; [29]
  Amaranth, Palmer / Pigweed, Palmer plant response rating (0 to 100 scale): 70
